The source of these data is patent publication US20240299285A1, “PERSONAL CARE COMPOSITION” (The Procter & Gamble Company, priority 2023, published 2024).

The data set is described as follows: Solubility Method (cooling/heating cycles, % transmittance, visual precipitate check). The class given is physicochemical. To be noted: SLT:SMLT 10.5:1, co-surfactant 1 % or 4 %, pH 5.2. The text has this: This method can be used to determine the solubility characteristics of a material (e.g., an acyl taurate) in a composition. The method uses heating and cooling cycles to simulate environmental conditions commonly experienced by a personal care product and accelerate the processes that can lead to product instability.
The test composition (e.g., an aqueous surfactant composition consisting of an acyl taurate surfactant and an N-alkyl acyl taurate surfactant and/or a co-surfactant, and/or a cationic polymer and water) is placed in a closed container to prevent evaporation and heated at 40° C. for a minimum of 30 minutes or until the composition is visually clear & free of precipitates. One mL of the test solution is added to a Crystal-16 vial, closed with a basic cap and placed into a Technobis Crystallization Systems Crystal16® Model 2.2 or equivalent. The % transmittance readings are set to record 1 measurement every 300 seconds. The vials are cooled to 5° C. at a rate of 0.25° C./min and held at 5° C. for 8 hours (cooling cycle). The vials are then heated to 20° C. at a rate of 0.25° C./min and held at 20° C. for 8 hours (heating cycle). […] When the final % T recorded at the end of the heating cycle is greater than or equal to 90% and no precipitate is observed the sample is considered soluble.

On to cocamidopropyl hydroxysultaine [CAPHS], for which the “effect of co-surfactant on acyl taurate (SLT) solubility” value is listed as “did not provide the desired solubility”.
As for sodium lauroamphoacetate, the “effect of co-surfactant on acyl taurate (SLT) solubility” value is “did not provide the desired solubility”.
